Measured values reported in patent EP1247448A2 (priority 1998, dated 1999).
“And” between values parts separate entries of the source, which are not always exact repeats. Identical values can stand only once. Like-named read-outs stand apart in the source and are kept apart here.

How the values were obtained:
[1] = test system: tomato late blight (TLB), Phytophthora infestans; type: in vivo; details: for TLB obs. % Control: Table 3a
[2] = test system: Tomato Late Blight; type: in vivo, Phytophthora infestans; details: Table 4a
[3] = test system: Cucumber Downy Mildew; assay: Cucumber downy mildew control on cucumber plants (Example 4); type: in vivo, Pseudoperonospora cubensis; details: Table 4b
[4] = test system: Phytophthora infestans on potatoes (PLB); type: in vivo; details: Table 5b
[5] = test system: Cucumber Downy Mildew; parameters: species or system Pseudoperonospora cubensis; details: in vivo
[6] = test system: Tomato Late Blight; type: in vivo, Phytophthora infestans; details: Table 6a
[7] = test system: grape downy mildew, Plasmopara viticola; assay: Grape downy mildew control on Delaware grapes (Example 6b); type: in vivo; details: Table 6b
Experimental: Tissue culture produced from Delaware grapes were sprayed with the fungicides. Inoculation with grape downy mildew (GDM) spores having a concentration of 40,000 spores ml was conducted 1 day after the application. Plants were placed in a mist chamber for 24 hrs and then moved to a control temperature chamber for the remainder of the test period. Table 6b -

[8] = test system: Phytophthora capsici; assay: Phytophthora capsici colony growth inhibition on potato dextrose agar (Examples 1 and 2); type: cell-based, Phytophthora capsici (ATCC 15399)

## CCO[PH](=O)O [Cmpd. E, Fosetyl-aluminum, reference compound]
[1]; 0.112 kg ai/ha
  TLB obs. % Control: 30.9%
[1]; 0.225 kg ai/ha
  TLB obs. % Control: 14.3%
[1]; 0.45 kg ai/ha
  TLB obs. % Control: 57.1%
[1]; 0.9 kg ai/ha
  TLB obs. % Control: 54.8%

## CCCOC(=O)NCCCN(C)C [Cmpd. F, Propamocarb, reference compound]
[2]; 0.063 Kg ai/ha
  % Control Observed: 0%
[2]; 0.125 Kg ai/ha
  % Control Observed: 3%
[2]; 0.25 Kg ai/ha
  % Control Observed: 17%
[3]; 0.063 Kg ai/ha
  % Control Observed: 9%
[3]; 0.125 Kg ai/ha
  % Control Observed: 0%
[3]; 0.25 Kg ai/ha
  % Control Observed: 27%

## O=C1c2ccccc2C(=O)N1SC(Cl)(Cl)Cl [Cmpd. G, Folpet, reference compound]
[4]; 0.225 Kg ai/ha
  % Control Observed: 0%
[4]; 0.45 Kg ai/ha
  % Control Observed: 3.5%
[5]
  Number of Infection Sites: 16 and 22.2 and 19.2

## O=[N+]([O-])c1cc(C(F)(F)F)c(Cl)c([N+](=O)[O-])c1Nc1ncc(C(F)(F)F)cc1Cl [Cmpd. H, Fluazinam, reference compound]
[6]; 0.125 Kg ai/ha
  % Control Observed: 20%
  % Infection: 64%
[7]; Cmpd. H 0.006 Kg ai/ha
  % Control Observed: 52%

## CCC(C)(NC(=O)c1cc(Cl)c(C)c(Cl)c1)C(=O)CCl (stereo not shown) [Compound A, N-[3'-(1'-chloro-3'-methyl-2'-oxopentan)]-3,5-dichloro-4-methylbenzamide]
[6]; 0.025 Kg ai/ha
  % Control Observed: 84%
  % Infection: 13.2%
[4]; 0.05 Kg ai/ha
  % Control Observed: 12%
[4]; 0.10 Kg ai/ha
  % Control Observed: 16%
[2]; 0.006 Kg ai/ha
  % Control Observed: 23%
[2]; 0.012 Kg ai/ha
  % Control Observed: 20%
[2]; 0.025 Kg ai/ha
  % Control Observed: 36%
[3]; 0.006 Kg ai/ha
  % Control Observed: 56%
[3]; 0.012 Kg ai/ha
  % Control Observed: 33%
[3]; 0.025 Kg ai/ha
  % Control Observed: 45%
[8]; Table 1, Compound A 0.2 ppm, Compound C 0 ppm
  % Inhibition (Observed): 34.1%
[8]; Table 1, Compound A 0.3 ppm, Compound C 0 ppm
  % Inhibition (Observed): 52.8%
[8]; Table 2, Compound A 0.1 ppm, Compound D 0 ppm
  % Inhibition (Observed): 21.6%
[8]; Table 2, Compound A 0.2 ppm, Compound D 0 ppm
  % Inhibition (Observed): 31.0%
[8]; Table 2, Compound A 0.3 ppm, Compound D 0 ppm
  % Inhibition (Observed): 44.0%
[1]; Example 3a, alone at all rates tested
  control of tomato late blight: ≥ 95%
[1]; 0.0125 kg ai/ha
  TLB obs. % Control: 97.1%
[1]; 0.025 kg ai/ha
  TLB obs. % Control: 96.7%
[1]; 0.05 kg ai/ha
  TLB obs. % Control: 96.7%
[1]; 0.1 kg ai/ha
  TLB obs. % Control: 97.1%
[5]
  % Control Observed: 74.3% and 84.8% and 98.1%
[7]; Cmpd. A 0.006 Kg ai/ha
  % Control Observed: 22%

## OP(O)O [Compound C, Phosphorous Acid, reference compound]
[8]; Table 1, Compound C 70 ppm, Compound A 0 ppm
  % Inhibition (Observed): 48.3%
[8]; Table 1, Compound C 100 ppm, Compound A 0 ppm
  % Inhibition (Observed): 72.1%

## O.O.O.O.O.O=S(=O)([O-])[O-].[Cu+2] [Compound D, CuSO4·5H2O, reference compound]
[8]; Table 2, Compound D 100 ppm, Compound A 0 ppm
  % Inhibition (Observed): 15.6%
[8]; Table 2, Compound D 200 ppm, Compound A 0 ppm
  % Inhibition (Observed): 47.0%
[8]; Table 2, Compound D 300 ppm, Compound A 0 ppm
  % Inhibition (Observed): 59.2%
